According to US7342028B2, “Medical use for tachykinin antagonists” (Glaxo Group Limited, priority 1991, dated 2008):
Blank lines part the entries; values can stand above or below the compound they belong to.

Legend:
[1] = system: cisplatin-induced emesis; experiment: cisplatin-induced emesis in the ferret; format: in vivo; conditions: for anti-emetic activity: inhibition of cisplatin-induced emesis: cisplatin 200 mg/m^2 i.p., compound 3 mg/kg i.p. at first retch
Protocol: In this model of emesis the onset of retching and vomiting occurs approximately 1 hour after the administration of cisplatin (200 mg/m^2 i.p.). At the first retch in response to cisplatin, the test compound was administered (e.g. i.p., p.o., i.v., s.c., i.c.v.) and its effect on emesis determined by comparison with appropriate controls (e.g. water).

[2] = biological target: NK1 receptor (Homo sapiens, UniProt P25103); experiment: NK1 receptor antagonist activity (enantiomer comparison); conditions: relative to the (2S,3S) enantiomer
[3] = system: emesis induced by cyclophosphamide; experiment: cyclophosphamide-induced emesis, test compound given simultaneously with the emetogen; format: in vivo, ferret; conditions: compound 3 mg/kg i.p. simultaneously with cyclophosphamide 200 mg/kg i.p.
[4] = system: emesis induced by morphine; experiment: morphine-induced emesis, test compound given simultaneously with the emetogen; format: in vivo, ferret; conditions: compound 3 mg/kg i.p. simultaneously with morphine 0.5 mg/kg s.c.
[5] = system: emesis induced by ipecacuanha; experiment: ipecacuanha-induced emesis, test compound given simultaneously with the emetogen; format: in vivo, ferret; conditions: compound 3 mg/kg i.p. simultaneously with ipecacuanha 2 mg/kg p.o.
[6] = system: emesis induced by copper sulphate; experiment: copper sulphate-induced emesis, test compound given simultaneously with the emetogen; format: in vivo, ferret; conditions: compound 3 mg/kg i.p. simultaneously with copper sulphate 40 mg/kg i.p.

Sequence of NK1 receptor (P25103 whole entry, species assumed): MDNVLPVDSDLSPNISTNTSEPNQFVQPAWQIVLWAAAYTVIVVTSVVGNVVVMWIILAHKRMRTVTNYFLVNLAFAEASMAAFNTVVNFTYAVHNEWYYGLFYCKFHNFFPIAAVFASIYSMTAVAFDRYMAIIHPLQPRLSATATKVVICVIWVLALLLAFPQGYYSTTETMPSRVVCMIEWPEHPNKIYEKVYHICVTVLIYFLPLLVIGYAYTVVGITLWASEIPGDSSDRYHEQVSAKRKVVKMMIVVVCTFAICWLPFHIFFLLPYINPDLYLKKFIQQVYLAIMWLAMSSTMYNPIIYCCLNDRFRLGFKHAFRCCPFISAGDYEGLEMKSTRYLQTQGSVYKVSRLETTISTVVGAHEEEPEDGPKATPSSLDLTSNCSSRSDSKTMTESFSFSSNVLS

fold less active as an NK1 receptor antagonist than the (2S,3S) enantiomer [2]: 1000 fold
Structure (SMILES): COc1ccccc1CN[C@H]1CCCN[C@H]1c1ccccc1 (relative stereo) [(2R,3R) enantiomer, cis-3-(2-methoxybenzylamino)-2-phenyl piperidine]
anti-emetic activity: inhibition of cisplatin-induced emesis ([1]; 3 mg/kg): inactive

Structure (SMILES): COc1ccccc1CNC1C2CCN(C2)C1C(c1ccccc1)c1ccccc1 (stereo not drawn) [Example 1, (exo,exo)-2-(Diphenylmethyl)-N-[(2-methoxyphenyl)methyl]-1-azabicyclo[2.2.1]heptan-3-amine]
inhibition of cisplatin-induced emesis ([1]; compound 5 mg/kg i.p.): inhibited

Structure (SMILES): COc1ccccc1CN[C@H]1CCCN[C@H]1c1ccccc1 (racemic) [(±) cis-3-(2-methoxybenzylamino)-2-phenyl piperidine]
anti-emetic activity: inhibition of cisplatin-induced emesis [1]: exhibited anti-emetic activity
anti-emetic activity against cyclophosphamide [3]: exhibited anti-emetic activity
anti-emetic activity against morphine [4]: exhibited anti-emetic activity
anti-emetic activity against ipecacuanha [5]: exhibited anti-emetic activity
anti-emetic activity against copper sulphate [6]: exhibited anti-emetic activity

Structure (SMILES): COc1ccccc1CN[C@H]1CCCN[C@H]1c1ccccc1 (relative stereo) [(2S,3S) enantiomer, cis-3-(2-methoxybenzylamino)-2-phenyl piperidine]
anti-emetic activity: inhibition of cisplatin-induced emesis ([1]; 3 mg/kg): inhibited
